Measurements from patent US20200093807A1, “NEW USE OF RIFAMYCIN-NITROIMIDAZOLE CONJUGATE MOLECULE” (TenNor Therapeutics Limited, priority 2017, published 2020).
≈ marks a conversion by molar mass, not a printed value. Where two headings read alike, the source gives them in different places.

Key:
[1] = test system: Treponema denticola ATCC 35405; experiment: MIC, anaerobic agar dilution (CLSI); format: cell-based; conditions: ATCC35405, 35° C., 42-48 hours
Gardnerella = experiment: MIC, agar dilution, Gardnerella; format: cell-based; conditions: Gardnerella as major BV bacteria
[2] = test system: Prevotella asaccharolytica (MET^R) MMX 3552; experiment: MIC, anaerobic agar dilution (CLSI); format: cell-based; conditions: 35° C., 42-48 hours
[3] = test system: Bacteroides uniformis MMX 1277; experiment: MIC, anaerobic agar dilution (CLSI); format: cell-based; conditions: MMX1277
[4] = test system: Prevotella intermedia ATCC 25611; experiment: MIC, anaerobic agar dilution (CLSI); format: cell-based; conditions: ATCC25611, 35° C., 42-48 hours
[5] = test system: Lactobacillus jensenii ATCC 25258; experiment: MIC, anaerobic agar dilution (CLSI); format: cell-based; conditions: ATCC25258
[6] = test system: Clostridium sporogenes ATCC 19404; experiment: MIC, anaerobic agar dilution (CLSI); format: cell-based; conditions: ATCC19404, 35° C., 42-48 hours
[7] = test system: Prevotella bivia ATCC 29303; experiment: MIC, anaerobic agar dilution (CLSI); format: cell-based; conditions: ATCC29303, 35° C., 42-48 hours
[8] = test system: Peptoniphilus asaccharolyticus ATCC 29743; experiment: MIC, anaerobic agar dilution (CLSI); format: cell-based; conditions: ATCC29743, 35° C., 42-48 hours
[9] = test system: Eubacterium (rectale) ATCC 33656; experiment: MIC, anaerobic agar dilution (CLSI); format: cell-based; conditions: Agathobacter rectalis, ATCC33656, 35° C., 42-48 hours
[10] = test system: Mobiluncus (mulieris) ATCC 35243; experiment: MIC, anaerobic agar dilution (CLSI); format: cell-based; conditions: ATCC35243, 35° C., 42-48 hours
Bacterial Vaginosis (BV) = conditions: within 3 months; cited from earlier work
[11] = test system: Clostridium perfringens (MET^R) MMX 3521; experiment: microbe, parasite or virus in culture; format: cell-based
[12] = test system: Prevotella disiens MMX 3446; experiment: MIC, anaerobic agar dilution (CLSI); format: cell-based; conditions: MMX3446, 35° C., 42-48 hours
[13] = test system: Bacteroides fragilis (MET^R) MMX 3387; experiment: MIC, anaerobic agar dilution (CLSI); format: cell-based
[14] = test system: Prevotella bivia (MET^R) MMX 3454; experiment: MIC, anaerobic agar dilution (CLSI); format: cell-based; conditions: 35° C., 42-48 hours
[15] = test system: Prevotella disiens MMX 3457; experiment: MIC, anaerobic agar dilution (CLSI); format: cell-based; conditions: MMX3457, 35° C., 42-48 hours
[16] = test system: Bacteroides thetaiotaomicron (MET^R) MMX 3409; experiment: microbe, parasite or virus in culture; format: cell-based; conditions: Bacteroides thetaiotaomicron
[17] = test system: Peptostreptococcus (magnus) ATCC 14956; experiment: MIC, anaerobic agar dilution (CLSI); format: cell-based; conditions: Finegoldia magna, ATCC14956, 35° C., 42-48 hours
[18] = test system: Gardnerella vaginalis ATCC 49145; experiment: MIC, anaerobic agar dilution (CLSI); format: cell-based; conditions: ATCC49145, 35° C., 42-48 hours
[19] = test system: Fusobacterium nucleatum ATCC 10953; experiment: MIC, anaerobic agar dilution (CLSI); format: cell-based; conditions: ATCC10953, 35° C., 42-48 hours
[20] = test system: Bacteroides ovatus (MET^R) MMX 3504; experiment: MIC, anaerobic agar dilution (CLSI); format: cell-based; conditions: 35° C., 42-48 hours
[21] = test system: Bacteroides fragilis (QC) ATCC 25285; conditions: range printed in parentheses; cited from earlier work
[22] = test system: Bifidobacterium longum ATCC 15707; experiment: MIC, anaerobic agar dilution (CLSI); format: cell-based; conditions: ATCC15707, 35° C., 42-48 hours
[23] = test system: Actinomyces naeslundii ATCC 12104; experiment: MIC, anaerobic agar dilution (CLSI); format: cell-based; conditions: ATCC12104, 35° C., 42-48 hours
[24] = test system: Lactobacillus gasseri ATCC 33323; experiment: MIC, anaerobic agar dilution (CLSI); format: cell-based; conditions: ATCC33323
Atopobium vaginae BAA-55 = experiment: MIC, anaerobic agar dilution (CLSI); format: cell-based; conditions: Fannyhessea vaginae, BAA55
[25] = test system: Bacteroides vulgatus MMX 8348; experiment: MIC, anaerobic agar dilution (CLSI); format: cell-based; conditions: Phocaeicola vulgatus, MMX8348, 35° C., 42-48 hours
[26] = test system: Anaerococcus (Anaerococcus(prevotii)) ATCC 9321; experiment: MIC, anaerobic agar dilution (CLSI); format: cell-based; conditions: 35° C., 42-48 hours
[27] = test system: Mobiluncus (curtisii subsp. curtisii) ATCC 35241; experiment: MIC, anaerobic agar dilution (CLSI); format: cell-based; conditions: ATCC35241, 35° C., 42-48 hours
[28] = test system: Peptococcus (niger) ATCC 27731; experiment: MIC, anaerobic agar dilution (CLSI); format: cell-based; conditions: ATCC27731, 35° C., 42-48 hours
[29] = test system: Lactobacillus crispatus ATCC 33820; experiment: MIC, anaerobic agar dilution (CLSI); format: cell-based; conditions: ATCC33820
[30] = test system: Veionella parvula ATCC 17745; experiment: MIC, anaerobic agar dilution (CLSI); format: cell-based; conditions: 35° C., 42-48 hours
[31] = test system: Fusobacterium nucleatum ATCC 25586; experiment: MIC, anaerobic agar dilution (CLSI); format: cell-based; conditions: ATCC25586, 35° C., 42-48 hours
[32] = test system: Peptostreptococcus anaerobius ATCC 27337; experiment: MIC, anaerobic agar dilution (CLSI); format: cell-based; conditions: ATCC27337, 35° C., 42-48 hours
[33] = test system: Bacteroides fragilis (QC) ATCC 25285; experiment: MIC, anaerobic agar dilution (CLSI); format: cell-based; conditions: ATCC25285, 35° C., 42-48 hours
[34] = test system: Bacteroides gracilis ATCC 33236; experiment: MIC, anaerobic agar dilution (CLSI); format: cell-based; conditions: Campylobacter gracilis, ATCC33236
[35] = test system: Bacteroides vulgatus (MET^R) MMX 3490; experiment: MIC, anaerobic agar dilution (CLSI); format: cell-based; conditions: Phocaeicola vulgatus
[36] = test system: Gardnerella vaginalis ATCC 14018; experiment: MIC, anaerobic agar dilution (CLSI); format: cell-based; conditions: ATCC14018, 35° C., 42-48 hours
[37] = test system: Prevotella bivia MMX 3450; experiment: MIC, anaerobic agar dilution (CLSI); format: cell-based; conditions: MMX3450, 35° C., 42-48 hours
[38] = test system: Bifidobacterium (breve) ATCC 15698; experiment: MIC, anaerobic agar dilution (CLSI); format: cell-based; conditions: ATCC15698, 35° C., 42-48 hours

Q: Which results are given for `Cc1ncc([N+](=O)[O-])n1CCO` [Metronidazole]?
A: MIC [1]: 0.5 µg/mL (≈ 2.92 µM); MIC (Gardnerella): 4 µg/mL (≈ 23.4 µM); MIC [2]: 1 µg/mL (≈ 5.84 µM); MIC ([3]; Bacteroides uniformis): > 256 µg/mL; MIC [4]: 1 µg/mL (≈ 5.84 µM); MIC ([5]; Lactobacillus jensenii): > 256 µg/mL; MIC [6]: 0.06 µg/mL (≈ 0.351 µM); MIC [7]: 1 µg/mL (≈ 5.84 µM); MIC [8]: 0.5 µg/mL (≈ 2.92 µM); MIC [9]: 0.5 µg/mL (≈ 2.92 µM); MIC [10]: 0.5 µg/mL (≈ 2.92 µM); recurrence rate (Bacterial Vaginosis (BV)): up to 58%; MIC [11]: > 256 µg/mL; MIC [12]: 0.5 µg/mL (≈ 2.92 µM); MIC ([13]; Bacteroides fragilis): > 256 µg/mL; MIC [14]: 0.5 µg/mL (≈ 2.92 µM); MIC [15]: 0.5 µg/mL (≈ 2.92 µM); MIC [16]: 2 µg/mL (≈ 11.7 µM); MIC [17]: 1 µg/mL (≈ 5.84 µM); MIC [18]: 4 µg/mL (≈ 23.4 µM); MIC [19]: 0.06 µg/mL (≈ 0.351 µM); MIC [20]: 2 µg/mL (≈ 11.7 µM); MIC range in parentheses (QC strain reference range) [21]: 0.25 to 1 µg/mL; MIC [22]: 8 µg/mL (≈ 46.7 µM); MIC [23]: 256 µg/mL (≈ 1500 µM); MIC ([24]; Lactobacillus gasseri): > 256 µg/mL; MIC (Atopobium vaginae BAA-55): 128 µg/mL (≈ 748 µM); MIC [25]: 1 µg/mL (≈ 5.84 µM); MIC [26]: 2 µg/mL (≈ 11.7 µM); MIC [27]: 2 µg/mL (≈ 11.7 µM); MIC [28]: 0.5 µg/mL (≈ 2.92 µM); MIC ([29]; Lactobacillus crispatus): > 256 µg/mL; MIC [30]: 2 µg/mL (≈ 11.7 µM); MIC [31]: 2 µg/mL (≈ 11.7 µM); MIC [32]: 0.25 µg/mL (≈ 1.46 µM); MIC [33]: 1 µg/mL (≈ 5.84 µM); MIC [34]: > 256 µg/mL; MIC [35]: 128 µg/mL (≈ 748 µM); MIC [36]: 4 µg/mL (≈ 23.4 µM); MIC [37]: 1 µg/mL (≈ 5.84 µM); MIC [38]: 8 µg/mL (≈ 46.7 µM)

Q: Which results are given for `CO[C@H]1/C=C/O[C@@]2(C)Oc3c(C)c(O)c4c(O)c(c(/C=N/N5CCN(C)CC5)c(O)c4c3C2=O)NC(=O)/C(C)=C\C=C\[C@H](C)[C@H](O)[C@@H](C)[C@@H](O)[C@@H](C)[C@H](OC(C)=O)[C@@H]1C` [Rifampicin]?
A: MIC [1]: 0.004 µg/mL (≈ 0.00486 µM); MIC (Gardnerella): 0.5 µg/mL (≈ 0.608 µM); MIC [2]: 0.004 µg/mL (≈ 0.00486 µM); MIC ([3]; Bacteroides uniformis MMX 1277, anaerobic, 35° C., 42-48 hours, read-out: MIC): 0.5 µg/mL (≈ 0.608 µM); MIC [4]: 0.12 µg/mL (≈ 0.146 µM); MIC ([5]; Lactobacillus jensenii ATCC 25258, anaerobic, 35° C., 42-48 hours, read-out: MIC): 0.5 µg/mL (≈ 0.608 µM); MIC [6]: 1 µg/mL (≈ 1.22 µM); MIC [7]: 0.5 µg/mL (≈ 0.608 µM); MIC [8]: 0.004 µg/mL (≈ 0.00486 µM); MIC [9]: 0.015 µg/mL (≈ 0.0182 µM); MIC [10]: 0.004 µg/mL (≈ 0.00486 µM); MIC [11]: 1 µg/mL (≈ 1.22 µM); MIC [12]: 0.12 µg/mL (≈ 0.146 µM); MIC ([13]; Bacteroides fragilis (MET^R) MMX 3387, anaerobic, 35° C., 42-48 hours, read-out: MIC): 0.25 µg/mL (≈ 0.304 µM); MIC [14]: 0.004 µg/mL (≈ 0.00486 µM); MIC [15]: 0.5 µg/mL (≈ 0.608 µM); MIC [16]: 0.5 µg/mL (≈ 0.608 µM); MIC [17]: 1 µg/mL (≈ 1.22 µM); MIC [18]: 0.5 µg/mL (≈ 0.608 µM); MIC [19]: 1 µg/mL (≈ 1.22 µM); MIC [20]: 1 µg/mL (≈ 1.22 µM); MIC [22]: 0.5 µg/mL (≈ 0.608 µM); MIC [23]: 0.03 µg/mL (≈ 0.0365 µM); MIC ([24]; Lactobacillus gasseri ATCC 33323, anaerobic, 35° C., 42-48 hours, read-out: MIC): 0.25 µg/mL (≈ 0.304 µM); MIC (Atopobium vaginae BAA-55; Atopobium vaginae BAA-55, anaerobic, 35° C., 42-48 hours, read-out: MIC): 0.25 µg/mL (≈ 0.304 µM); MIC [25]: 0.25 µg/mL (≈ 0.304 µM); MIC [26]: 0.03 µg/mL (≈ 0.0365 µM); MIC [27]: 0.004 µg/mL (≈ 0.00486 µM); MIC [28]: 0.004 µg/mL (≈ 0.00486 µM); MIC ([29]; Lactobacillus crispatus ATCC 33820, anaerobic, 35° C., 42-48 hours, read-out: MIC): 2 µg/mL (≈ 2.43 µM); MIC [30]: 4 µg/mL (≈ 4.86 µM); MIC [31]: 0.5 µg/mL (≈ 0.608 µM); MIC [32]: 0.004 µg/mL (≈ 0.00486 µM); MIC [33]: 0.25 µg/mL (≈ 0.304 µM); MIC ([34]; Bacteroides gracilis ATCC 33236, anaerobic, 35° C., 42-48 hours, read-out: MIC): 16 µg/mL (≈ 19.4 µM); MIC ([35]; Bacteroides vulgatus (MET^R) MMX 3490, anaerobic, 35° C., 42-48 hours, read-out: MIC): 0.25 µg/mL (≈ 0.304 µM); MIC [36]: 0.5 µg/mL (≈ 0.608 µM); MIC [37]: 0.06 µg/mL (≈ 0.0729 µM); MIC [38]: 0.25 µg/mL (≈ 0.304 µM)
